Results from US20260345582A1, “PRODRUG FOR ANTI-AGING RELATED DISEASES AND USE METHOD THEREOF” (Beijing SunCell Bio-Medical Co., Ltd., priority 2022, published 2026).

Tests used:
[1] = tested on: mouse model of oxygen-induced retinopathy; test: oxygen-induced retinopathy, retinal microvessel staining analysis; assay type: in vivo, C57BL6/J mice; conditions: single intravitreal injection
Method: A. Modelling of a mouse model of oxygen-induced retinopathy, and the schematic diagram of treatment. C57BL6/J mice were cultured in 75% hyperoxia for 5 consecutive days starting from postnatal day 7, and treated by a single intravitreal administration of the drug on postnatal day 12, and then transferred to normal air atmosphere until day 17 for retinal sampling and analysis. P0, P7, P12, and P17 in the panel represent mice on postnatal days 0, 7, 12, and 17, respectively.
B. Representative diagram of the reduction of pathological avascular areas in the mouse retina after the treatment by intravitreal injection of A13bGa1. Mouse retinal microvessels were labelled by IB4 staining for the central avascular area analysis, wherein the green fluorescence represents the IB4-labelled microvascular areas, and the avascular areas are circled with white markers in the panel.
C. Statistical results of the retina pathological avascular areas after treatment of different groups of mice. […] The statistics in the panel are the quantitative results of the ischemic areas in the retinas of each sample compared with that of the VEH control group after the areas were taken as the means, and the error bar is a standard deviation. […]

[2] = plasma metabolic stability, rat; assay type: in vitro ADME; conditions: 120 min
Method: Plasma Metabolic Stability
Termination of the reaction was accomplished by the addition of 3× volume of acetonitrile and centrifugation at 16000 g for 20 minutes. The supernatant was taken for a LC-MS/MS analysis. The chromatographic column: Waters XSelect HSS T3; the flow rate: 500 μL/min; the eluent: A, water (0.1% formic acid); B, acetonitrile (0.1% formic acid); the gradient elution: 0-1.5 min, 5% B, 1.5-9 min, 5%-80% B, 9-12 min, 80%-100% B, 12-14 min, 100% B, 14-14.3 min, 100%-5% B, 14.3-15 min, 5% B.

[3] = tested on: mouse model of Bleomycin-induced pulmonary fibrosis; test: Bleomycin-induced pulmonary fibrosis model, overall therapeutic effect; assay type: in vivo, C57 mice; conditions: 5 mg/kg i.p., four weeks
Method: A. Modelling of a mouse model of Bleomycin-induced pulmonary fibrosis, and the schematic diagram of treatment. Mice were modelled with Bleomycin administered via tracheal instillation on day 0, and the treatment with intraperitoneal injection of the drug was started on day 4. The drug was administered for 3 consecutive days per week, followed by a 4-day withdrawal, for 4 weeks.
All drugs were mixed in 85% physiological saline, 5% DMSO (Sigma, D8418) and 10% Solutol HS 15 (Sigma, 42966), and administered to mice by intraperitoneal (i.p.) injection. To treat the bleomycin-injured young mice, A13 (2 mg/kg), A13bGa1 (5 mg/kg), or an empty vehicle control was administered three consecutive days per week for four weeks. A1331852 (abbreviated as A13) was purchased from MCE.
Bleomycin-Induced Pulmonary Fibrosis
Bleomycin was purchased from Selleck. As previously reported (Bivas-Benita et al., Eur J Pharm Biopharm 61, 214-218 (2005)), a transtracheal injection of bleomycin (2 mg/kg) was performed to the young male C57 mice (8-10 weeks old) to induce lung fibrosis. Drug treatment was initiated four days after modelling, and the drug was administered three consecutive days per week for four consecutive weeks, after which the mice were executed for material collection.

Structure (SMILES): Cc1c(-c2ccc(N3CCc4cccc(C(=O)Nc5nc6ccccc6s5)c4C3)nc2C(=O)OCc2ccc(O[C@@H]3O[C@H](CO)[C@H](O)[C@H](O)[C@H]3O)c([N+](=O)[O-])c2)cnn1CC12CC3CC(CC(C3)C1)C2 [Compound A13bGa1]
- retinal oxygen-induced microangiopathy [1]: effectively improve the retinal oxygen-induced microangiopathy
- area of the abnormal neovascular area in the retinas ([1]; 50 ng and 100 ng, FIGS. 6D and 6E): significantly reduced
- metabolised at 2 h, 10 µM ([2]; 10 μM prodrug, read-out: The peak area after normalisation at minute 120, oxidative dehydrogenation metabolite): 0.13%
- remaining at 2 h, 10 µM ([2]; 10 μM, read-out: The peak area after normalisation at minute 120, initial drug): 99.9%
- anti-inflammatory and anti-fibrotic therapeutic effects [3]: good anti-inflammatory and anti-fibrotic therapeutic effects
